Results reported in patent US8129037B2, “Phenanthrene derivative” (priority 2005, dated 2012).

Test: Solubility comparison in common organic solvents
Type: physicochemical
Conditions: qualitative
From the text: In contrast, phenanthrenes which are structurally analogous but unsubstituted in the 9- and 10-position have distinctly poorer solubility in organic solvents. This leads to considerable problems in the purification, since substantially larger apparatus and distinctly larger amounts of solvent are required for this purpose.

Cc1ccc(-c2ccc3c(c2)c(C)c(C)c2cc(-c4ccc(C)c5ccccc45)ccc23)c2ccccc12 [Example P1]
Solubility in common organic solvents: moderate to good
